Assay results from ChEMBL document CHEMBL4651402, “Screening of ~5500 FDA-approved drugs and clinical candidates for anti-SARS-CoV-2 activity” (2021).
Where a name gives a salt, the structure may show the parent alone.

Test system: SARS-CoV-2
Assay: microbe, parasite or virus in culture
Conditions: Severe acute respiratory syndrome coronavirus 2, Vero C1008, 48 h

Row | Compound | IC50 [µM] | IC50 (read-out: pIC50 (converted)) [µM]
1 | COc1nc(C)nc(Cl)c1NC1=NCCN1 [MOXONIDINE] | > 20 | > 20
2 | Cc1ccccc1C(=O)Nc1ccc(C(=O)N2CCCC(N(C)C)c3ccccc32)cc1 (stereo not given) [MOZAVAPTAN] | > 20 | > 20
3 | CC(c1ccc(Cl)c(Cl)c1)N1N=C(N)CC1=O (stereo not given) [MUZOLIMINE] | > 20 | > 20
4 | COc1c(C)c2c(c(O)c1C/C=C(\C)CCC(=O)OCCN1CCOCC1)C(=O)OC2 [MYCOPHENOLATE MOFETIL] | > 20 | > 20
5 | COc1c(C)c2c(c(O)c1C/C=C(\C)CCC(=O)O)C(=O)OC2 [MYCOPHENOLIC ACID] | > 20 | > 20
6 | CC1N(CC(=O)c2ccccc2)CCCC1(C)c1cccc(O)c1 (stereo not given) [MYFADOL] | > 20 | > 20
7 | c1cncc(C2=NCCC2)c1 [MYOSMINE] | > 20 | > 20
8 | O=c1c(O)c(-c2cc(O)c(O)c(O)c2)oc2cc(O)cc(O)c12 [MYRICETIN] | > 20 | > 20
9 | CCCCCCCCCCCCCC(=O)O [MYRISTIC ACID] | > 20 | > 20
10 | OC[C@H]1O[C@@H](n2cnc3c(NC4CCCC4)ncnc32)[C@H](O)[C@@H]1O [N6-CYCLOPENTYLADENOSINE] | > 20 | > 20
11 | N=C(N)NC(=O)c1nc(Cl)c(N2CCCCCC2)nc1N [N,N-HEXAMETHYLENEAMILORIDE] | > 20 | > 20
12 | CC(=O)N1CCCC1C(=O)O (stereo not given) [N-ACETYLPROLINE] | > 20 | > 20
13 | COc1ccc2cc(CCC(C)=O)ccc2c1 [NABUMETONE] | > 20 | > 20
14 | NC(=O)c1ccc[n+]([C@@H]2O[C@H](COP(=O)([O-])OP(=O)(O)OC[C@H]3O[C@@H](n4cnc5c(N)ncnc54)[C@H](O)[C@@H]3O)[C@@H](O)[C@H]2O)c1 [NADIDE] | > 20 | > 20
15 | CC1CCc2c(N3CCC(O)CC3)c(F)cc3c(=O)c(C(=O)O)cn1c23 (stereo not given) [NADIFLOXACIN] | > 20 | > 20
16 | CC(C)(C)NCC(O)COc1cccc2c1CC(O)C(O)C2 (stereo not given) [NADOLOL] | > 20 | > 20
17 | N=C(N)Nc1ccc(C(=O)Oc2ccc3cc(C(=N)N)ccc3c2)cc1 [NAFAMOSTAT] | > 20 | > 20
18 | CCOc1ccc2ccccc2c1C(=O)N[C@@H]1C(=O)N2[C@@H]1SC(C)(C)[C@@H]2C(=O)O [NAFCILLIN] | > 20 | > 20

Row | Compound | IC50 [µM] | IC50 (read-out: pIC50 (converted)) [µM]
19 | CC(C)(Oc1ccc(C2CCCc3ccccc32)cc1)C(=O)O (stereo not given) [NAFENOPIN] | > 20 | > 20
20 | O=C(Cn1ccnc1)c1ccc2ccccc2c1 [NAFIMIDONE] | > 20 | > 20
21 | CCN(CC)CCOC(=O)C(Cc1cccc2ccccc12)CC1CCCO1 (stereo not given) [NAFRONYL] | > 20 | > 20
22 | CN(C/C=C/c1ccccc1)Cc1cccc2ccccc12 [NAFTIFINE] | > 20 | > 20
23 | COc1ccccc1N1CCN(CC(O)COc2cccc3ccccc23)CC1 (stereo not given) [NAFTOPIDIL] | > 20 | > 20
24 | Oc1ccc2c3c1O[C@H]1[C@@H](O)CC[C@@]4(O)[C@@H](C2)N(CC2CCC2)CC[C@]314 [NALBUPHINE] | > 50.1 | > 50.1
25 | CCn1cc(C(=O)O)c(=O)c2ccc(C)nc21 [NALIDIXIC ACID] | > 20 | > 20
26 | C=CCN1CC[C@]23c4c5ccc(O)c4O[C@H]2C(=O)CC[C@@]3(O)[C@H]1C5 [NALOXONE] | > 20 | > 20
27 | O=C1CC[C@@]2(O)[C@H]3Cc4ccc(O)c5c4[C@@]2(CCN3CC2CC2)[C@H]1O5 [NALTREXONE] | > 20 | > 20
28 | CNC(=O)[C@H]1O[C@@H](n2cnc3c(NCc4cccc(I)c4)nc(Cl)nc32)[C@H](O)[C@@H]1O [NAMODENOSON] | > 20 | > 20
29 | CCCCCCCCCC(=O)O[C@H]1CC[C@H]2[C@@H]3CCC4=CC(=O)CC[C@@H]4[C@H]3CC[C@]12C [NANDROLONE DECANOATE] | > 20 | > 20
30 | C[C@]12CC[C@H]3[C@@H](CCC4=CC(=O)CC[C@@H]43)[C@@H]1CC[C@@H]2O [NANDROLONE] | > 20 | > 20
31 | CC(=O)Oc1cc(OC(C)CCCc2ccccc2)cc2c1[C@@H]1C[C@H](O)CC[C@H]1[C@H](C)N2 (stereo not given in full) [NANTRADOL HYDROCHLORIDE] | > 20 | > 20
32 | CC(=O)c1cc2c(o1)C(=O)c1ccccc1C2=O [NAPABUCASIN] | > 20 | > 20
33 | C/N=C(/Cc1ccc2ccccc2c1)NC [NAPACTADINE] | > 20 | > 20
34 | c1ccc2c(CC3=NCCN3)cccc2c1 [NAPHAZOLINE] | > 20 | > 20
35 | O=C1C=CC(=O)c2ccccc21 [NAPHTHOQUINONE] | > 20 | > 20
